From ChEMBL document CHEMBL5303573, “Mapping human microbiome drug metabolism by gut bacteria and their genes” (Nature, 2019)

Tests used:
Format in all cases: ADME
Design in all cases: dose 2 uM
Conditions in all cases: 2 µM
[1] = biological target: T1, 3-oxo-5-alpha-steroid 4-dehydrogenase (Bacteroides thetaiotaomicron, UniProt Q8A618); assay: (§1) The drug is tested on Bacteroides thetaiotaomicron strain: VPI-5482 for biotransformation. The drug concentrations were measured before and after a 12-h incubation by liquid-chromatography-coupled mass spectrometry (LC–MS)
T1 sequence (Q8A618 whole entry): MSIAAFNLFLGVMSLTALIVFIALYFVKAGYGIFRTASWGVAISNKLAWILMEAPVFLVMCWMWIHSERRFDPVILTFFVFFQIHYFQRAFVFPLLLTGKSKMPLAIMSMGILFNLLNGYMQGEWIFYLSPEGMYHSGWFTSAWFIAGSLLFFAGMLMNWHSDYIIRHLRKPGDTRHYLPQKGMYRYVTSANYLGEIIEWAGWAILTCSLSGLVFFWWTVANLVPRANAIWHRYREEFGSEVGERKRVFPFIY

[2] = biological target: T2, Lipolytic enzyme, G-D-S-L family (Bacteroides thetaiotaomicron, UniProt Q8A0E6); assay: as §1
T2 sequence (Q8A0E6 whole entry): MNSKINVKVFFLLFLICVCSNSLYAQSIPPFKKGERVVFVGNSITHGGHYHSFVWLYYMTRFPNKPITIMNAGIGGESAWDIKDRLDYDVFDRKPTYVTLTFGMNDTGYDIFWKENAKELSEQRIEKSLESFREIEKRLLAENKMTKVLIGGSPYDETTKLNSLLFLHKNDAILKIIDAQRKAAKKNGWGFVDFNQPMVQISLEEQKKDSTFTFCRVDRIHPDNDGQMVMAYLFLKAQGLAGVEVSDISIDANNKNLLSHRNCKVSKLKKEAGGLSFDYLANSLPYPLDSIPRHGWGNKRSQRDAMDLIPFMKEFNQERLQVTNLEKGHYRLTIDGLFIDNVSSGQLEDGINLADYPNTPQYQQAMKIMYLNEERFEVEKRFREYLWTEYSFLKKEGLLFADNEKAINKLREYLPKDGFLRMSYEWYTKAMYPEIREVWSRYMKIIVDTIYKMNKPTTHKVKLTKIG

[3] = biological target: T3, Sialic acid-specific 9-O-acetylesterase (Bacteroides thetaiotaomicron, UniProt Q8A0D0); assay: as §1
T3 sequence (Q8A0D0 whole entry): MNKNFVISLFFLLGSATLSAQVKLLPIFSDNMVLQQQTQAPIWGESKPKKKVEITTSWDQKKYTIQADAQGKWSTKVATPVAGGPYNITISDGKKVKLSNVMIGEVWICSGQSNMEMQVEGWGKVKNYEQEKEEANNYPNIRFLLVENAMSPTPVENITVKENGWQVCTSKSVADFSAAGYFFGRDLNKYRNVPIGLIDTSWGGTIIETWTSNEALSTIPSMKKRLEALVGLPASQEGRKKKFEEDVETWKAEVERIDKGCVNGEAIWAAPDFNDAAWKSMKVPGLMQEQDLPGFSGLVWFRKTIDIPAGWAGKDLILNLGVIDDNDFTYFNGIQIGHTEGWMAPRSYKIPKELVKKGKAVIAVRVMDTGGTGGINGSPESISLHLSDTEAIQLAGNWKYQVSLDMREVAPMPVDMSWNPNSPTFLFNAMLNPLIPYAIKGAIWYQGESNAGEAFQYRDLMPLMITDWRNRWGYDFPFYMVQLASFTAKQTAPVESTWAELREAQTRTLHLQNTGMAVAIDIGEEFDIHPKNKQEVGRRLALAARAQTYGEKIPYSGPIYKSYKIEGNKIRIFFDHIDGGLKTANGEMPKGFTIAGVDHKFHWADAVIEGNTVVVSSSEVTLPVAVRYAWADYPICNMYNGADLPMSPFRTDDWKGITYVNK

[4] = biological target: T4, Acyltransferase (Bacteroides thetaiotaomicron, UniProt Q8A575); assay: as §1
T4 sequence (Q8A575 whole entry): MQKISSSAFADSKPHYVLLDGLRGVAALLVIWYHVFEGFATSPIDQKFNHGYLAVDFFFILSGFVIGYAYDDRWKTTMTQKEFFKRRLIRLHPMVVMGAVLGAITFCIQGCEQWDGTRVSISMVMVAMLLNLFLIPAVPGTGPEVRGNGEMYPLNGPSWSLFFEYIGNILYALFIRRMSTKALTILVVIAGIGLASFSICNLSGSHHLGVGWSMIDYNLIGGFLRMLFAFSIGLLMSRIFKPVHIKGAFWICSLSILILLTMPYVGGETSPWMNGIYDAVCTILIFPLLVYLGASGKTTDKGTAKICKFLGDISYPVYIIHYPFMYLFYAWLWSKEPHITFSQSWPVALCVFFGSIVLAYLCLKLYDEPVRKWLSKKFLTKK

[5] = biological target: T5, Endoglucanase E (EGE) (Bacteroides thetaiotaomicron, UniProt Q8AAL9); assay: as §1
T5 sequence (Q8AAL9 whole entry): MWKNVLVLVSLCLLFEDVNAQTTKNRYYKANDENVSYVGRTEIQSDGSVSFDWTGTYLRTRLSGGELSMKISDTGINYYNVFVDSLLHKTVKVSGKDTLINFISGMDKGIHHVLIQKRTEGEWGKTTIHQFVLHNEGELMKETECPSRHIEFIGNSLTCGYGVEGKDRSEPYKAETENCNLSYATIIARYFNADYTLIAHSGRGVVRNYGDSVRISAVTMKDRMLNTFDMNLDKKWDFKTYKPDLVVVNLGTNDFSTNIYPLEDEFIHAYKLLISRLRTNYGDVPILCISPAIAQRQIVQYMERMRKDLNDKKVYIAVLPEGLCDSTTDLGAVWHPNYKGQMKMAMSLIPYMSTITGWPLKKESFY

[6] = biological target: T6, Nitroreductase (Bacteroides thetaiotaomicron, UniProt Q8A911); assay: as §1
T6 sequence (Q8A911 whole entry): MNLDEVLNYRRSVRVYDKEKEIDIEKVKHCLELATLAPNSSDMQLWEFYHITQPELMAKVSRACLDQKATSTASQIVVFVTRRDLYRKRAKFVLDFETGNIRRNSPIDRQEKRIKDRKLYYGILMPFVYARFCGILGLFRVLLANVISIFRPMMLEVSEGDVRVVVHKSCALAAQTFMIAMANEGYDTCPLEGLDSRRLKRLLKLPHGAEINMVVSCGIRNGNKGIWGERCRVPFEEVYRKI

[7] = biological target: T7, Sialic acid-specific acetylesterase (Bacteroides thetaiotaomicron, UniProt Q8A331); assay: as §1
T7 sequence (Q8A331 whole entry): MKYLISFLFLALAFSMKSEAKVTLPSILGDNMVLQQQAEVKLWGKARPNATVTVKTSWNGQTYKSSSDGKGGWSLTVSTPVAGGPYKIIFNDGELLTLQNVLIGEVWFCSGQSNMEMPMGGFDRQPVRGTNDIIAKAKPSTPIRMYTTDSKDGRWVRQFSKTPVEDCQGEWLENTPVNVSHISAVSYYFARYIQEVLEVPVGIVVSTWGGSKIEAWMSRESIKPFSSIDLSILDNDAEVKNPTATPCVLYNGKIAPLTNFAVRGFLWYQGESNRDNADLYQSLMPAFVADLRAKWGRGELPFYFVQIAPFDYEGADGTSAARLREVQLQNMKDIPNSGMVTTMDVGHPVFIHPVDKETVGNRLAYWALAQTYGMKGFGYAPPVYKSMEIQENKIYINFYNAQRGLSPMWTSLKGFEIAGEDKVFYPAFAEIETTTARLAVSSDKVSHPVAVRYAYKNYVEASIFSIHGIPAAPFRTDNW

Bacterial Biotransformation [1]	Bacterial Biotransformation [2]	Bacterial Biotransformation [3]	Bacterial Biotransformation [4]	Bacterial Biotransformation [5]	Bacterial Biotransformation [6]	Bacterial Biotransformation [7]	SMILES
Compound NOT metabolized	Compound NOT metabolized	Compound NOT metabolized	Compound NOT metabolized	Compound NOT metabolized	Compound NOT metabolized	Compound NOT metabolized	C[C@]12CCC(=O)C=C1[C@@H]1C[C@@H]1[C@H]1[C@@H]3[C@@H]4C[C@@H]4[C@@]4(CCC(=O)O4)[C@@]3(C)CC[C@@H]12 [DROSPIRENONE]
Compound NOT metabolized	Compound NOT metabolized	Compound NOT metabolized	Compound metabolized	Compound NOT metabolized	Compound NOT metabolized	Compound NOT metabolized	N#Cc1ccc2c(c1)N(CCCN1CCC(O)CC1)c1ccccc1S2 [PERICIAZINE]
